Measured values as given in patent US20040105875A1, “Composition containing a secondary or tertiary carbonyl amine, method of use thereof, compounds” (L'OREAL, priority 2002, published 2004).

How the values were obtained:
[1] = tested on: calcium flux (release of Ca2+) in HDFa cells obtained from skin fibroblasts; assay: Inhibition of calcium flux (IC50Ca2+) on cells obtained from skin fibroblasts HDFa; assay type: cell-based; details: 50% inhibitory concentration for the release of Ca2+
Excerpt: (§1) In order for a substance to be recognized as a calcium-channel inhibitor, it must be able to reduce the intracellular calcium concentration or reduce the binding of calcium to intracellular proteins such as, for example, calmodulin, as is described especially by Galizzi, J. P. et al., J. Biol. Chem. 1987, 262 p. 6947; by Y. Okamiya et al., Eur. J. Pharmacol. 1991, 205, p. 49; by J. A. Wagner et al., J. Neurosci. 1988, 8, p. 3354; by H. R. Lee et al., Life Sci. 1984, 35, p. 721; by Schoemaker H. and Lauger S. Eur. J. Pharmacol. 1985, 111, p. 273 or I. J. Reynolds et al., J. Pharmacol. Exp. Ther. 1986, 237, p. 731.
(§2) According to the protocol indicated in these documents, the Assignee determined the IC50Ca2+ of inhibition of calcium flux for compounds (Ia), (IIa) to (IId), (IIIa) and (IIIb), in comparison with verapamil. IC50Ca2+ represents the 50% inhibitory concentration for the release of Ca^2+.

[2] = tested on: calcium flux (release of Ca2+) in SK-N-SH nerve cells; assay: Inhibition of calcium flux (IC50Ca2+) on nerve cells SK-N-SH; assay type: cell-based; details: Homo sapiens, 50% inhibitory concentration for the release of Ca2+
Excerpt: as §1, §2

[3] = tested on: normal human fibroblasts inserted into a fibrillar collagen gel (dermal equivalent); assay: Contraction of dermal equivalents (fibroblasts in fibrillar collagen gel), dermo-decontracting effect; assay type: cell-based
Excerpt: This model thus makes it possible to evaluate the relaxing potential of compounds by measuring the delay in contraction of the treated dermal equivalents relative to the control dermal equivalents prepared under the same conditions. Verapamil is used as reference molecule.
Dermal fibroblasts are isolated from human skin explants and cultured in MEM medium+additives (10% foetal calf serum, 1% glutamine, 1% non-essential amino acids, 1% sodium pyruvate, 1% Fungizone and 1% penicillin/streptomycin). The collagen used is obtained from a commercial solution. It is extracted from rat tails and stored in acidic medium at +4° C. It is dialysed beforehand against successive baths of acetic acid of decreasing concentration.
The mixture is homogenized cautiously, so as to obtain a distribution of the cells in the collagen matrix that is as uniform as possible. It is then distributed in each well of a 12-well culture dish at a rate of 2 ml/well. The final cell concentration is 3×10^4 cells/dermal equivalent with a final collagen concentration of 1 mg/ml.
The culture dishes are incubated at 37° C./5% CO2 so as to obtain polymerization and gelation of the collagen. The dermal equivalents thus treated adhere to the dishes and the cells are subjected to mechanical stresses that potentiate their contractile properties. The cells thus cultured in 3D end up under conditions close to those of the dermis. After culturing for three days under these “attached” conditions, the dermal equivalents are detached from their support by gentle agitation. […]
To do this, a digital image is acquired for each treated or untreated dermal equivalent using a camera (CCD camera—Iris Sony DXC -107P) and on each of them, the small (D1) and large (D2) diameters of the dermal equivalent are measured by computer. The surface area is calculated according to the formula for calculating an ellipse: S=(D1×D2×π)/4. […] The percentage of contraction is calculated according to the formula below, in which Si represents the surface area of the dermal equivalent at Ti: […]

fibroblasts = assay: Cytotoxicity check in the dermal equivalent test; assay type: cell-based, human

| Structure (SMILES) | IC50 [1] | IC50 [2] | also measured |
| --- | --- | --- | --- |
| CCCCCCCNCCC(=O)c1ccccc1 [Compound (IIc)] | 46 µM | 36 µM | – |
| CCN(CCCc1ccccc1)CCCc1ccccc1 [alverine, reference compound] | – | 30 µM | activity in the dermal equivalent contraction test ([3]; tested under the same conditions): no activity |
| COc1ccc(CCN(C)CCCC(C#N)(c2ccc(OC)c(OC)c2)C(C)C)cc1OC (stereo not drawn) [verapamil] | – | – | difference in the degree of contraction compared with control dermal equivalents ([3]; tested at 10 μM, same conditions (4 days of contact)): 32% |
| CCCCCC(=O)CCN(CC)CCC(=O)c1ccccc1 [Compound (IIa)] | 41 µM | 29 µM | – |
| COc1cc(CNCCC(=O)c2ccccc2)ccc1O [Compound (IIIa)] | 30 µM | 41 µM | – |
| COc1ccc(CCN(C)CCC(=O)c2ccccc2)cc1OC [Compound (IIIb)] | 6 µM | 14 µM | – |
| CCCCCCCN(C)CCC(=O)c1ccccc1 [Compound (IIb)] | 31 µM | 26 µM | – |
| CN(CCC(=O)c1ccccc1)CCC(=O)c1ccccc1.Cl [Compound (Ia)] | – | 36 µM | difference in the degree of contraction compared with control dermal equivalents ([3]; tested at 1 μm, after 4 days of contact with the fibroblasts): 25%; cytotoxicity as cause of the decontracting effect (fibroblasts): did not result from any cytotoxicity |
| CCCCCC(O)(CCCCC)CCN(CC)CCC(=O)c1ccccc1 [Compound (IId), 3-[ethyl(3-hydroxy-3-pentyloctyl)amino]-1-phenylpropan-1-one] | 4 µM | 3 µM | – |
